Results as given in ChEMBL document CHEMBL1127946, “The squalestatins: Potent inhibitors of squalene synthase, 3-hydroxymethyl derivatives” (Bioorg Med Chem Lett, 1994).

Biological target: T1, Squalene synthase (Rattus norvegicus, UniProt Q02769)
T1 sequence (Q02769 whole entry): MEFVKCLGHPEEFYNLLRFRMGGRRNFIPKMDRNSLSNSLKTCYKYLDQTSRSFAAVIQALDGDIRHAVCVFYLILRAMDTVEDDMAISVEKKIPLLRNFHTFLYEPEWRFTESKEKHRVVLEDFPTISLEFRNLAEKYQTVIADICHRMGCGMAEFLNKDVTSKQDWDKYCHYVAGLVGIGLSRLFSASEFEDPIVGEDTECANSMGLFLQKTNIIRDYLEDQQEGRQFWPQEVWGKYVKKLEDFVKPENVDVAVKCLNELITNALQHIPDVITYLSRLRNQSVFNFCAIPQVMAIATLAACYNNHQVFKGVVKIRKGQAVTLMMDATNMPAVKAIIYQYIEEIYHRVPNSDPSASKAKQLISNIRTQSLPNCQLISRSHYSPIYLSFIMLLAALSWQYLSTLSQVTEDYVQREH
Assay: In vitro inhibition of rat squalene synthase

Row | SMILES | IC50
1 | C=C(CC[C@]12O[C@H](CO)[C@@](O)(C(=O)O)[C@](C(=O)O)(O1)[C@H](OC(=O)CCCCCCCC)[C@H]2O)[C@@H](OC(C)=O)[C@H](C)Cc1ccccc1 | 140 nM
2 | C=C(CC[C@]12O[C@H](CO)[C@@](O)(C(=O)O)[C@](C(=O)O)(O1)[C@H](O)[C@H]2O)[C@@H](OC(C)=O)[C@H](C)Cc1ccccc1 | 395 nM
3 | C=C(CC[C@]12O[C@H](CO)[C@@](O)(C(=O)O)[C@](C(=O)O)(O1)[C@H](OC(=O)CCC)[C@H]2O)[C@@H](OC(C)=O)[C@H](C)Cc1ccccc1 | 800 nM
4 | C=C(CC[C@]12O[C@H](CO)[C@@](O)(C(=O)O)[C@](C(=O)O)(O1)[C@H](OC(=O)CCCCCC)[C@H]2O)[C@@H](OC(C)=O)[C@H](C)Cc1ccccc1 | 245 nM
5 | C=C(CC[C@]12O[C@H](CO)[C@@](O)(C(=O)O)[C@](C(=O)O)(O1)[C@H](OC(=O)CCC(C)C)[C@H]2O)[C@@H](OC(C)=O)[C@H](C)Cc1ccccc1 | 119 nM
6 | CC[C@H](C)C[C@H](C)CCC(=O)O[C@@H]1[C@@H](O)[C@@]2(CCC(=O)[C@@H](O)[C@H](C)Cc3ccccc3)O[C@H](CO)[C@@](O)(C(=O)O)[C@]1(C(=O)O)O2 | 740 nM
7 | C=C(CC[C@]12OC[C@@](O)(C(=O)O)[C@](C(=O)O)(O1)[C@H](O)[C@H]2O)[C@@H](OC(C)=O)[C@H](C)Cc1ccccc1 | 25000 nM

Now those with a lower IC50, led by results:

Row | IC50 | SMILES
8 | 15 nM | C=C(CC[C@]12O[C@H](CO)[C@@](O)(C(=O)O)[C@](C(=O)O)(O1)[C@H](OC(=O)/C=C/[C@@H](C)C[C@@H](C)CC)[C@H]2O)[C@@H](OC(C)=O)[C@H](C)Cc1ccccc1
9 | 44 nM | C=C(CC[C@]12O[C@H](CO)[C@@](O)(C(=O)O)[C@](C(=O)O)(O1)[C@H](OC(=O)CC[C@@H](C)C[C@@H](C)CC)[C@H]2O)[C@@H](OC(C)=O)[C@H](C)Cc1ccccc1
10 | 23 nM | C=C(CC[C@]12OC[C@@](O)(C(=O)O)[C@](C(=O)O)(O1)[C@H](OC(=O)/C=C/[C@@H](C)C[C@@H](C)CC)[C@H]2O)[C@@H](OC(C)=O)[C@H](C)Cc1ccccc1
11 | 21 nM | C=C(CC[C@]12O[C@H](CO)[C@@](O)(C(=O)O)[C@](C(=O)O)(O1)[C@H](OC(=O)/C=C/[C@@H](C)C[C@@H](C)CC)[C@H]2O)[C@@H](O)[C@H](C)Cc1ccccc1
12 | 79 nM | C=C(CC[C@]12O[C@H](CO)[C@@](O)(C(=O)OC)[C@](C(=O)O)(O1)[C@H](OC(=O)/C=C/[C@@H](C)C[C@@H](C)CC)[C@H]2O)[C@@H](OC(C)=O)[C@H](C)Cc1ccccc1
13 | 22 nM | C=C(CC[C@]12O[C@H](CO)[C@@](O)(C(=O)O)[C@](C(=O)O)(O1)[C@H](OC(=O)CC[C@@H](C)C[C@@H](C)CC)[C@H]2O)[C@@H](O)[C@H](C)Cc1ccccc1
